Source: patent US20040034023A1, “Use of polycyclic aromatic compounds for making medicines capable of inhibiting telomerase” (priority 2000, published 2004)
“And” between values parts separate entries of the source, which are not always exact repeats. Equal values may be shown once.

Columns and labels:
[1] = system: human telomerase; assay: Telomerase inhibition, TRAP test with HL60 cell extract; assay type: biochemical; conditions: for IC50: TRAP test, HL60 cell lysate as source of telomerase; for in vitro inhibition of the telomerase (FIG. 3A, gel of elongation products): tested at 0.1, 1 and 10 μM
[2] = system: human HeLa tumoral line; assay: Antiproliferative effect / cytotoxicity on HeLa cells (Cell Titer 96 Aqueous One Solution); assay type: cell-based
Description: Cells of cancer lines are incubated for 3 days in the presence of different concentrations of compound 1.
These cells are cultured in a MEM (Life Technologies) medium containing 10% of decomplemented foetal calf serum, glutamine, nonessential amino acids (1%) and antibiotics (penicillin and streptomycin). The ligand is diluted in the culture medium after adhesion of the cells on 96-well plates (2500 cells per well). The number of cells is estimated by the “Cell Titer 96 Aqueous One Solution Cell Proliferation Assay” kit from Promega. Each measurement was carried out in quadruplicate. The cells are left in the presence of the compound for 1 to 4 days, then counted.

[3] = system: triplex; conditions: 15 μM colorant; cited from earlier work
[4] = system: G-quadruplex (fluo-GGGTTAGGGTTAGGGTTAGGG-tamra oligonucleotide, SEQ ID No. 1); assay: G-quadruplex stabilization, Tm in fluorescence (FRET method); assay type: binding; conditions: 1 μM colorant; 0.1 M LiCl 10 mM cacodylate buffer pH 7.6; 0.2 μM oligonucleotide
Description: All the experiments were carried out in a 10 mM sodium cacodylate buffer of pH 7.6 containing 0.1 M of lithium chloride (or sodium chloride). The absence of fluorescent contamination in the buffer was verified beforehand. The fluorescent oligonucleotide is added at the final concentration of 0.2 μM.
The identification of G-quartets ligands was carried out by fluorescence according to the FRET (Fluorescence Resonance Energy Transfer) method which corresponds to a dipole-dipole resonance interaction between two molecules close to each other, one of which, the donor, transfers its excitation energy to the other molecule, or acceptor. The formation of an intramolecular G-quartet structure must bring the 2 chromophores close enough to be able to observe a transfer of energy.
All the fluorescence measurements were carried out on a Spex Fluorolog DM1B apparatus, using an excitation line width of 1.8 nm and an emission line width of 4.5 nm. The specimens are placed in a micro quartz dish measuring 0.2×1 cm. The temperature of the specimen is controlled by an external water bath. The single oligonucleotide was analysed at 20, 30, 40, 50, 60, 70 and 80° C. The emission spectra are recorded using an excitation wavelength of 470 nm. The excitation spectra are recorded using either 515 nm, or 588 nm as emission wavelength. The spectra are adjusted to take account of the response of the instrument by reference curves. A substantial extinction (80-90%) of the fluorescence of the fluorescein at ambient temperature is observed, in keeping with an intramolecular folding of the oligonucleotide at 20° C. in the form of a G-quadruplex, which induces a juxtaposition of its 5′ and 3′ ends, respectively bound to the fluorescein and to the tetramethylrhodamine (tamra in short). This juxtaposition involves a phenomenon already described, extinction of fluorescence of the donor by FRET, and a sensitized emission of the acceptor.
A stock solution of oligonucleotide at the strand concentration of 0.2 μM in a 0.1 M LiCl 10 mM cacodylate buffer of pH 7.6 is prepared beforehand, heated briefly to 90° C. and cooled slowly to 20° C., then distributed by aliquots of 600 μl in the fluorescence dishes. 3 μl of water (for the control) or 3 μl of the product to be tested (stock at 200 μM, final concentration 1 μm) are then added and mixed. The specimens are then left to incubate for at least 1 hour at 20° C. before each measurement.
Each experiment allows only a single specimen to be measured. This is firstly incubated at an initial temperature of 20° C., raised to 80° C. in 40 minutes, left for 5 minutes at 80° C., then cooled to 20° C. in 62 minutes. During this time, the fluorescence is measured simultaneously at two emission wavelengths (515 nm and 588 nm) using 470 nm as excitation wavelength. A measurement is carried out every 30 seconds. The temperature of the water bath is recorded in parallel, and the fluorescence profile as a function of the temperature is reconstituted from these values. The fluorescence profiles are then standardized between 20° C. and 80° C., and the temperature for which the emission intensity at 515 nm is the average of those and high and low temperature is called Tm. In these conditions, the Tm of the reference specimen without addition of product is 44° C. in a lithium chloride buffer. This temperature is increased to more than 55° C. in the sodium chloride buffer. The addition of a compound stabilizing the G-quadruplex induces an increase in the Tm. This increase is considered significant if it is greater than 3° C.
In the tests for which the results are reported below, two oligonucleotides were used of sequences SEQ ID No. 1 and SEQ ID No. 2, replaced at the 5′ end by a fluorescein (fluo in short) group and at 3′ end by a tamra group, conforming to the following sequences: […]

Row | Compound | IC50 [1] | Δ Tm triplex [3] | Δ Tm G4(FRET) [4] | other results
1 | CCCNCc1ccc2nc3ccc4cc5cc(CNCCC)ccc5nc4c3cc2c1 [Compound 1] | 0.3 µM | 20 °C | – | in vitro inhibition of the telomerase (FIG. 3A, gel of elongation products) [1]: disappearance of the bands with less mobility; IC50 ([2]; HeLa cells in the presence of compound for 24 hours): 0.5 µM; mortality ([2]; HeLa cells incubated for 96 hours, 0.5 micromolars): 100%; mortality rate ([2]; HeLa cells, concentrations of 5 micromolars or more): 100%
2 | CCCNCc1cc2nc3ccccc3cc2c2cc3ccccc3nc12 [Compound 2] | 1.4 µM and 1.45 µM | 37 °C | +5.5 °C | in vitro inhibition of the telomerase (FIG. 3A, gel of elongation products) [1]: inhibits the telomerase
3 | CN(C)CCCNCc1cc2nc3ccccc3cc2c2cc3ccccc3nc12 [Compound 3] | 0.75 µM | 44 °C | – | –
4 | CCCNCc1ccc2nc3ccc4nc5ccc(CNCCC)cc5cc4c3cc2c1 [Compound 4] | 1 µM | 18 °C | – | –
5 | CCCNCc1ccc2nc3c(ccc4cc5cc(CNCCC)ccc5nc43)cc2c1 [Compound 5] | 0.5 µM | 7 °C | +12.5 °C | –
6 | CN(C)CCCNCc1ccc2nc3c(ccc4cc5cc(CNCCCN(C)C)ccc5nc43)cc2c1 [Compound 6] | 0.9 µM | 16 °C | – | –
7 | c1ccc2nc3cc(CNCCN4CCCCC4)c4nc5ccccc5cc4c3cc2c1 [Compound 7] | 2 µM | – | +2.5 °C | –
8 | c1cn(CCCNCc2ccc3nc4ccc5cc6cc(CNCCCn7ccnc7)ccc6nc5c4cc3c2)cn1 [Compound 8] | 0.46 µM | – | +15 °C | –
9 | c1nc(CCNCc2ccc3nc4ccc5cc6cc(CNCCc7c[nH]cn7)ccc6nc5c4cc3c2)c[nH]1 [Compound 9] | 0.95 µM | – | +10.5 °C | –
10 | c1ccc2c(CCNCc3ccc4nc5ccc6cc7cc(CNCCc8c[nH]c9ccccc89)ccc7nc6c5cc4c3)c[nH]c2c1 [Compound 10] | – | – | +8.4 °C | –
11 | NCCCCNCc1ccc2nc3ccc4cc5cc(CNCCCCN)ccc5nc4c3cc2c1 [Compound 11] | 0.13 µM | – | +18 °C | –
12 | c1cc2nc3ccc4cc5cc(CNCCCN6CCOCC6)ccc5nc4c3cc2cc1CNCCCN1CCOCC1 [Compound 12] | 0.48 µM | – | +7 °C | –
13 | CN(C)CCCNCc1ccc2nc3ccc4cc5cc(CNCCCN(C)C)ccc5nc4c3cc2c1 [Compound 13] | 0.028 µM | – | +19.7 °C | –
14 | tetra [N-methyl pyridyl]porphyrin [reference compound] | – | – | approximately 4 °C | –
